Key:
[1] = Pharmacokinetics in C57 mice; details: in vivo
Procedure: After subcutaneous or intravenous administration to C57 mice, plasma was collected and the drug concentration in plasma was determined to illustrate the in vivo pharmacokinetic properties of the compound according to the present invention. […] 20.0 µL of thawed plasma sample was taken. 20 µL of 50% aqueous methanol solution (containing 100 ng mL^-1 Tolbutamide) and 60 µL of acetonitrile were added sequentially to precipitate protein. The mixture was vortexed for 5 minutes, and centrifuged at 4815 rpm for 8 minutes. 50.0 µL of the supernatant was taken, into which 50.0 µL of 0.5% aqueous formic acid solution was added. The mixture was vortexed for 5 minutes. 50 µL of the mixture solution was sampled and injected into the LC-MS/MS to determine the drug concentration in plasma. Based on the drug concentration in plasma of the compounds in C57 mice, the pharmacokinetic parameters were calculated by applying the software Winnolin 8.3 in a non-compartmental model, and the results were shown in Table 7 and Table 8 below. Table 7 Average Pharmacokinetic Parameters after Single Subcutaneous Administration to Mice

[2] = Pharmacokinetics in cynomolgus monkeys; details: cynomolgus monkey, in vivo
Procedure: After subcutaneous or intravenous administration to cynomolgus monkeys, plasma was collected and the drug concentration in plasma was determined to illustrate the in vivo pharmacokinetic properties of the compound according to the present invention. […] 70.0 µL of thawed plasma sample was taken. 70 µL of acetonitrile (containing 1 ng/ml of the internal standard) was added to precipitate protein. […] The mixture was vortexed for 5 minutes. 10 µL of the mixture solution was sampled and injected into the LC-MS/MS to determine the drug concentration in plasma. […] Table 9 Average Pharmacokinetic Parameters after Single Subcutaneous Administration to Cynomolgus Monkeys

[3] = test system: db/db mice; assay: Multiple administration experiment on db/db mice; format: in vivo; details: for Efficacy Dose: db/db mice multiple administrations, dose with blood glucose AUC p<0.05 vs. Vehicle; for AUC 4-25 day Glu / D28 FBG(Fasting Blood Glucose) / Liver Weight / Serum ALT / Serum TBIL / Serum TG: db/db mice, s.c. every 3 days for 4 weeks, Mean±SEM, 6 mice
Procedure: "Minimum effective dose" as disclosed in the present invention refers to the minimum administration dose at which the drug effect is produced.
"Efficacy dose" as disclosed in the present invention refers to the administration dose at which the drug effect is produced.
In this study, 7-8 week old male db/db mice were used. The db/db mice were placed in an individual ventilated cage (IVC) facility with a controlled temperature (20-26°C) and humidity (40-70%) and a controlled 12:12 h light-dark cycle. The mice received food and water ad libitum. Blood were sampled at the tail tip, and the base blood glucose was measured by a Roche blood glucose meter. The mice were randomly divided into groups according to the initial blood glucose and initial body weight (n=6/group), and each group had similar body weight and blood glucose.
The mice were subcutaneously administrated every 3 days for 4 weeks. Subcutaneous administration was conducted on days 1, 4, 7, 10, 13, 16, 19, 22 and 25. Random blood glucose was recorded every 3 days throughout the study. On day 28, the fasting blood glucose was measured. Then the blood was collected by orbital blood sampling. After the orbital blood sampling, the animals were sacrificed, and the liver was taken and weighed. After 1 to 2 hours, the collected blood was centrifuged at 3000 rpm for 10 min to separate the serum. Biochemical indicators such as triglyceride (TG), alanine aminotransferase (ALT), and total bilirubin (TBIL) were determined with a biochemical analyzer. The data results were statistically analyzed using GraphPad Prism8, and the statistical differences among the groups were analyzed following T-Test. Significant differences were identified at p<0.05.

[4] = Repeated administration on male rats for 2 weeks (toxicity, toxicokinetics); format: in vivo, SD male rats; details: for MTD: MTD for 2 weeks, rats; for dose at which decrease of the body weight was observed after the first administration / accumulation (toxicokinetic) / MTD at 336 h: SD male rats; for Gross Anatomy: SD male rats, 1, 3, 10 mg/kg twice a week for 2 weeks; for accumulation (toxicokinetic) / MTD at 336 h: administered twice a week for 2 weeks; for MTD at 336 h: Sprague-Dawley; for MTD at 336 h / safety window (based on exposure), times of that of Tirzepatide: rat, in vivo; for Safety Window (based on dosage): rat 2-week MTD versus efficacy dose
Procedure: 77 SD male rats (SPF grade) were selected and randomly divided into 10 groups based on body weight. Group 1 was the vehicle control group, including 5 animals. […] Group 5 to Group 7 were the groups administrated with the test substance 1; and Group 8 to Group 10 were the groups administrated with the test substance 2, each group including 8 animals, wherein 5 animals for primary test, and 3 animals for toxicokinetics test, and the administration dose was 1, 3 and 10 mg/kg respectively. Each of the above groups was continuously administered twice a week for 2 weeks (administrating at Day 1, Day 5, Day 8, Day 12 and Day 15).
During the experiment, the cage condition monitoring, detailed clinical observations, determination of the food consumption, determination of body weight, measurement of the blood biochemical and hematology indicator, investigation of the gross anatomy, weighing of the organ, studying on toxicokinetic were performed on all the groups of the animals.
Original data during each time period was tabulated. The average values and standard deviations and/or group change were calculated for each assay endpoint based on the group and sex. For each endpoint, the administrated group will be compared with the control group in the following aspect. A logarithmic conversion was performed to the endpoint data as desired prior to the start of the specific analyses.

[5] = sc, cynomolgus monkeys, single subcutaneous administration, 25 nmol/kg
[6] = cynomolgus monkeys, single intravenous administration, 12.5 nmol/kg

## CC[C@H](C)[C@H](NC(=O)C(C)(C)NC(=O)[C@H](Cc1ccc(O)cc1)NC(=O)[C@H](CC(=O)O)NC(=O)[C@H](CO)NC(=O)[C@@H](NC(=O)C(C)(Cc1ccccc1)NC(=O)[C@@H](NC(=O)CNC(=O)[C@H](CCC(=O)O)NC(=O)C(C)(C)NC(=O)[C@@H](N)Cc1ccc(O)cc1)[C@@H](C)O)[C@@H](C)O)C(=O)NC(C)(C)C(=O)N[C@@H](CC(C)C)C(=O)N[C@@H](CC(=O)O)C(=O)N[C@@H](CCCCN)C(=O)N[C@@H](CCC(N)=O)C(=O)N[C@@H](C)C(=O)N[C@@H](CCC(N)=O)C(=O)N[C@@H](C)C(=O)N[C@@H](CCC(=O)O)C(=O)N[C@@H](Cc1ccccc1)C(=O)N[C@H](C(=O)N[C@@H](CCCCNC(=O)COCCOCCNC(=O)COCCOCCNC(=O)CC[C@H](NC(=O)CCCCCCCCCCCCCCCCCCCCC(=O)O)C(=O)O)C(=O)N[C@@H](Cc1c[nH]c2ccccc12)C(=O)N[C@@H](CC(C)C)C(=O)N[C@@H](CC(C)C)C(=O)N[C@@H](CCCCN)C(=O)NCC(=O)NCC(=O)N1CCC[C@H]1C(=O)N[C@@H](CO)C(=O)N[C@@H](CO)C(=O)NCC(=O)N[C@@H](C)C(=O)N1CCC[C@H]1C(=O)N1CCC[C@H]1C(=O)N1CCC[C@H]1C(=O)N[C@@H](CO)C(=O)N[C@@H](CCCCN)C(N)=O)C(C)C (some centres unmarked) [Compound P014]
[1]; C57, mouse, iv
  AUC(0-inf): 18200 ng·h/mL
  AUC(0-t): 17500 ng·h/mL
  C0: 1940 ng/mL
  half-life: 17.2 h
[1]; C57, mouse, iv, MRT(0-t)
  MRT: 15.7 h
[1]; C57, mouse, iv, MRT(0-∞)
  MRT: 19.2 h
[1]; C57, mouse, sc
  AUC(0-inf): 30200 ng·h/mL
  AUC(0-t): 27300 ng·h/mL
  Cmax: 852 ng/mL
  Tmax: 6 h
  half-life: 20.3 h
[1]; C57, mouse, sc, MRT(0-t)
  MRT: 22.9 h
[1]; C57, mouse, sc, MRT(0-∞)
  MRT: 30.3 h
[2]; sc
  Tmax: 16 ± 6.93 h
  half-life: 52.7 ± 6.45 h
[3]
  Efficacy Dose: 3 nmol/kg
[3]; 3 nmol/kg
  AUC 4-25 day Glu: 294 ± 40.43 mmol·days/L
  D28 FBG(Fasting Blood Glucose): 10.22 ± 1.58 mmol/L
  Liver Weight: 2.26 ± 0.18 g
  Serum ALT: 111.24±13.23 U/L
  Serum TBIL: 0.58 ± 0.11 µmol/L
  Serum TG: 1.39 ± 0.07 mmol/L
[3]; 10 nmol/kg
  AUC 4-25 day Glu: 214.4 ± 33.73 mmol·days/L
  D28 FBG(Fasting Blood Glucose): 10.72 ± 1.75 mmol/L
  Liver Weight: 2.1 ± 0.14 g
  Serum ALT: 89.9±8.66 U/L
  Serum TBIL: 0.58 ± 0.15 µmol/L
  Serum TG: 1.29 ± 0.03 mmol/L
[3]; 30 nmol/kg
  AUC 4-25 day Glu: 190.62 ± 26.47 mmol·days/L
  D28 FBG(Fasting Blood Glucose): 13.38 ± 3.38 mmol/L
  Liver Weight: 1.89 ± 0.31 g
  Serum ALT: 106.47±14.3 U/L
  Serum TBIL: 0.36 ± 0.15 µmol/L
  Serum TG: 1.14 ± 0.18 mmol/L
[4]
  MTD: 1980 nmol/kg (MTD for 2 weeks)
  dose at which decrease of the body weight was observed after the first administration: ≥ 1 mg/kg
  Gross Anatomy: no abnormalities were found
  accumulation (toxicokinetic): no substantial accumulation
  MTD at 336 h: ≥ 10 mg/kg
  Safety Window (based on dosage): 1319
  safety window (based on exposure), times of that of Tirzepatide: more than 4 times

## CC[C@H](C)[C@H](NC(=O)C(C)(C)NC(=O)[C@H](Cc1ccc(O)cc1)NC(=O)[C@H](CC(=O)O)NC(=O)[C@H](CO)NC(=O)[C@@H](NC(=O)C(C)(Cc1ccccc1)NC(=O)[C@@H](NC(=O)CNC(=O)[C@H](CCC(=O)O)NC(=O)C(C)(C)NC(=O)[C@@H](N)Cc1ccc(O)cc1)[C@@H](C)O)[C@@H](C)O)C(=O)NC(C)(C)C(=O)N[C@@H](CC(C)C)C(=O)N[C@@H](CC(=O)O)C(=O)N[C@@H](CCCCN)C(=O)N[C@@H](CCC(N)=O)C(=O)N[C@@H](C)C(=O)N[C@@H](CCC(N)=O)C(=O)N[C@@H](C)C(=O)N[C@@H](CCC(=O)O)C(=O)N[C@@H](Cc1ccccc1)C(=O)N[C@H](C(=O)N[C@@H](CCCCNC(=O)COCCOCCNC(=O)COCCOCCNC(=O)COCCOCCNC(=O)CC[C@H](NC(=O)CCCCCCCCCCCCCCCCCCCCC(=O)O)C(=O)O)C(=O)N[C@@H](Cc1c[nH]c2ccccc12)C(=O)N[C@@H](CC(C)C)C(=O)N[C@@H](CC(C)C)C(=O)N[C@@H](CCCCN)C(=O)NCC(=O)NCC(=O)N1CCC[C@H]1C(=O)N[C@@H](CO)C(=O)N[C@@H](CO)C(=O)NCC(=O)N[C@@H](C)C(=O)N1CCC[C@H]1C(=O)N1CCC[C@H]1C(=O)N1CCC[C@H]1C(=O)N[C@@H](CO)C(=O)N[C@@H](CCCCN)C(N)=O)C(C)C (some centres unmarked) [Compound P016]
[1]; C57, mouse, iv, MRT(0-t)
  MRT: 19.9 h
[1]; C57, mouse, iv, MRT(0-∞)
  MRT: 26.6 h
[1]; C57, mouse, sc, MRT(0-t)
  MRT: 26 h
[1]; C57, mouse, sc, MRT(0-∞)
  MRT: 35.9 h
[1]; mouse, sc, C57 mice, single subcutaneous administration, read-out: AUC(0-t)
  AUC(0-t): 15900 ng·h/mL
[1]; mouse, sc, C57 mice, single subcutaneous administration, read-out: AUC(0-∞)
  AUC(0-inf): 18200 ng·h/mL
[1]; mouse, sc, C57 mice, single subcutaneous administration, read-out: Cmax
  Cmax: 434 ng/mL
[1]; mouse, sc, C57 mice, single subcutaneous administration, read-out: T1/2 (converted)
  half-life: 23.1 h
[1]; mouse, sc, C57 mice, single subcutaneous administration, read-out: Tmax
  Tmax: 8 h
[1]; mouse, C57 mice, single intravenous administration, read-out: AUC(0-t)
  AUC(0-t): 11100 ng·h/mL
[1]; mouse, C57 mice, single intravenous administration, read-out: AUC(0-∞)
  AUC(0-inf): 12100 ng·h/mL
[1]; mouse, C57 mice, single intravenous administration, read-out: C0
  C0: 1150 ng/mL
[1]; mouse, C57 mice, single intravenous administration, read-out: T1/2 (converted)
  half-life: 20.1 h
[2]; [5]
  AUC(0-inf): 323000 ± 44600 ng·h/mL
  AUC(0-t): 319000 ± 41500 ng·h/mL
  Cmax: 3000 ± 481 ng/mL
[2]; sc, cynomolgus monkeys, single subcutaneous administration, 25 nmol/kg, read-out: T1/2 (converted)
  half-life: 60.4 ± 12.8 h
[2]; sc, cynomolgus monkeys, single subcutaneous administration, 25 nmol/kg, read-out: Tmax
  Tmax: 40 ± 13.9 h
[2]; [6]
  AUC(0-inf): 80000 ± 21100 ng·h/mL
  AUC(0-t): 78200 ± 20300 ng·h/mL
  C0: 1700 ± 335 ng/mL
[2]; cynomolgus monkeys, single intravenous administration, 12.5 nmol/kg, read-out: T1/2 (converted)
  half-life: 59.8 ± 8.95 h
[3]
  Efficacy Dose: 3 nmol/kg
[3]; 3 nmol/kg
  AUC 4-25 day Glu: 256.38 ± 22 mmol·days/L
  D28 FBG(Fasting Blood Glucose): 10.42 ± 1.46 mmol/L
  Liver Weight: 2.24 ± 0.1 g
  Serum ALT: 137.93±34.59 U/L
  Serum TBIL: 0.82 ± 0.13 µmol/L
  Serum TG: 1.21 ± 0.04 mmol/L
[3]; 10 nmol/kg
  AUC 4-25 day Glu: 249.25 ± 41.42 mmol·days/L
  D28 FBG(Fasting Blood Glucose): 12.5 ± 2.19 mmol/L
  Liver Weight: 1.98 ± 0.12 g
  Serum ALT: 128.94±16.93 U/L
  Serum TBIL: 1.22 ± 0.28 µmol/L
  Serum TG: 1.22 ± 0.24 mmol/L
[3]; 30 nmol/kg
  AUC 4-25 day Glu: 163.98 ± 11.57 mmol·days/L
  D28 FBG(Fasting Blood Glucose): 6.05 ± 0.41 mmol/L
  Liver Weight: 1.78 ± 0.08 g
  Serum ALT: 97.7±12.36 U/L
  Serum TBIL: 0.73 ± 0.16 µmol/L
  Serum TG: 1.2 ± 0.05 mmol/L
[4]
  MTD: 1924 nmol/kg (MTD for 2 weeks)
  dose at which decrease of the body weight was observed after the first administration: ≥ 1 mg/kg
  Gross Anatomy: no abnormalities were found
  accumulation (toxicokinetic): no substantial accumulation
  MTD at 336 h: ≥ 10 mg/kg
  Safety Window (based on dosage): 1282
  safety window (based on exposure), times of that of Tirzepatide: more than 7 times

— EP4813403A1, “USE OF GLP-1R/GIPR DOUBLE-TARGET AGONIST IN PREPARING ANIMAL DRUG” (Hangzhou Zhongmeihuadong Pharmaceutical Co., Ltd., priority 2023, dated 2025)
